The record followed here is patent US8415469B2, “Compounds and methods for kinase modulation, and indications therefor” (Plexxikon Inc., priority 2005, dated 2013).

Holding throughout (assay type): biochemical
For one test, the target named is T1, Flt4 (Homo sapiens, UniProt P35916).
T1 construct: purchased ProQinase GmbH (Freiburg, Germany)
Briefly: AlphaScreen kinase assay, Flt4. The note with it: read-out: IC50, activity toward kinase Flt4. In a few lines:
(§1)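 AlphaScreen, biotin-peptide substrate; streptavidin donor/anti-phospho acceptor beads; decreased emission = inhibition. Cpds 20 mM DMSO stock, 1:3 x 8 conc.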
Background: Alpha assays give light when donor and acceptor beads are brought close together.

Another test deals with T2, Jnk2 (Homo sapiens, UniProt P45984).
T2 construct: purchased Roche Protein Expression Group (Indianapolis, IN)
The experiment in a line: AlphaScreen kinase assay, Jnk2. The note with it: read-out: IC50, activity toward kinase Jnk2. A digest of the protocol:
as §1

Another test concerns the target T3, MAP2K1 (Homo sapiens, UniProt Q02750).
T3 construct: purchased Invitrogen (assay run by Invitrogen)
The experiment in a line: Z'-Lyte FRET kinase assay (Invitrogen), MAP2K1. The conditions noted are these: read-out: IC50, activity toward kinase MAP2K1.

For the next test, the target named is T4, Pyk2 (Homo sapiens, UniProt Q14289).
T4 construct: purchased Upstate Biotechnology
Briefly: AlphaScreen kinase assay, Pyk2. The conditions noted are these: read-out: IC50, activity toward kinase Pyk2.

The target in another test is T5, Itk (Homo sapiens, UniProt Q08881).
T5 sequence (Q08881 1-620): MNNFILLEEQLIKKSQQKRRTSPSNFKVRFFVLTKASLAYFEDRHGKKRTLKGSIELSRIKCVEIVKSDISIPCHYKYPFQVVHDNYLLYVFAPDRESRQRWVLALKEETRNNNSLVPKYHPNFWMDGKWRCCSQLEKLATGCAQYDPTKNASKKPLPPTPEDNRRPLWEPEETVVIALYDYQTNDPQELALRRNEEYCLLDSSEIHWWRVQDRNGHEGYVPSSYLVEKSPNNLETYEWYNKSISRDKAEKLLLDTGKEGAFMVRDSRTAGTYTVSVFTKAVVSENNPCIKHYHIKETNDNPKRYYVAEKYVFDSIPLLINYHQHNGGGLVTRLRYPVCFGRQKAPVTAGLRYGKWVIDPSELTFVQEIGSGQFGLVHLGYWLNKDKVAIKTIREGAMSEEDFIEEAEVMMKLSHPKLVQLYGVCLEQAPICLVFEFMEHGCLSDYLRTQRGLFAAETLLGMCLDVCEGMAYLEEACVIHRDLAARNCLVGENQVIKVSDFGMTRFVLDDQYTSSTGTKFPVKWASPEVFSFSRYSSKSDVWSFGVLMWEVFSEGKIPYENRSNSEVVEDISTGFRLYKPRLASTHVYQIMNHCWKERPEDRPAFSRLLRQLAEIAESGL
Briefly: AlphaScreen kinase assay, Itk. The note with it: read-out: IC50, activity toward kinase Itk. A digest of the protocol: as §1

T1 sequence (P35916 25-1363): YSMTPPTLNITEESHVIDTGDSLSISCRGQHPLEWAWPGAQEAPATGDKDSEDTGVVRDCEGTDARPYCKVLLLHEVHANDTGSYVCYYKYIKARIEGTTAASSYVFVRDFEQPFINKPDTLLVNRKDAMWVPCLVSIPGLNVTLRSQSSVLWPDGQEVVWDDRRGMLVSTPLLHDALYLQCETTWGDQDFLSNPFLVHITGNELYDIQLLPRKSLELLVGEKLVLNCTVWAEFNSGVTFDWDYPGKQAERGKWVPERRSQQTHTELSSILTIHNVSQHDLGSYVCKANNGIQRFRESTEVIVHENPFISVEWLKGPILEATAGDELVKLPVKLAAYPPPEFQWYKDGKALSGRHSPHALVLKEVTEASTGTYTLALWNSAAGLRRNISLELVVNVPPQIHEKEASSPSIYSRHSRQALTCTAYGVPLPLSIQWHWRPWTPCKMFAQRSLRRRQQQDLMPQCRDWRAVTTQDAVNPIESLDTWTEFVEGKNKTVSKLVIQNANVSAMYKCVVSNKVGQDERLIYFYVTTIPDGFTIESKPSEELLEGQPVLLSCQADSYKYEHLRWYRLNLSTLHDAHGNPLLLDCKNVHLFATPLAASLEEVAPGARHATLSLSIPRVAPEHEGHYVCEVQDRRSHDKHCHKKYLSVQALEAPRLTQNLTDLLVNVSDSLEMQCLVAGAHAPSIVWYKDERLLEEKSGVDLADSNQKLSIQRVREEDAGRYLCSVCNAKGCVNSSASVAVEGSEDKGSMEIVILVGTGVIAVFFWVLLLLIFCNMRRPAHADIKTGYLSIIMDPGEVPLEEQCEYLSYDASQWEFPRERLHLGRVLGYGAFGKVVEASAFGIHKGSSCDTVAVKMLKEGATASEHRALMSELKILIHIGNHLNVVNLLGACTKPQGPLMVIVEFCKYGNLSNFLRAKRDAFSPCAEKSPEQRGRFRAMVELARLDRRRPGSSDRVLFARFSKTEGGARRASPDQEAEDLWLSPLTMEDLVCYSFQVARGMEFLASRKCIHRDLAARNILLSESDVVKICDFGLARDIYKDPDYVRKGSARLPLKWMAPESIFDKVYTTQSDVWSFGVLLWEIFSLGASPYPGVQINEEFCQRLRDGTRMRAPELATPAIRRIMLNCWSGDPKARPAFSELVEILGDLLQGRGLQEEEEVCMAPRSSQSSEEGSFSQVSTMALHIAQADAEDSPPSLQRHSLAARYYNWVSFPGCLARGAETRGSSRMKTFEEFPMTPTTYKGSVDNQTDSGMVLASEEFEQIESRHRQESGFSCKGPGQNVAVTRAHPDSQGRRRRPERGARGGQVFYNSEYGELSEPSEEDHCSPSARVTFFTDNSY
T3 sequence (Q02750 whole entry): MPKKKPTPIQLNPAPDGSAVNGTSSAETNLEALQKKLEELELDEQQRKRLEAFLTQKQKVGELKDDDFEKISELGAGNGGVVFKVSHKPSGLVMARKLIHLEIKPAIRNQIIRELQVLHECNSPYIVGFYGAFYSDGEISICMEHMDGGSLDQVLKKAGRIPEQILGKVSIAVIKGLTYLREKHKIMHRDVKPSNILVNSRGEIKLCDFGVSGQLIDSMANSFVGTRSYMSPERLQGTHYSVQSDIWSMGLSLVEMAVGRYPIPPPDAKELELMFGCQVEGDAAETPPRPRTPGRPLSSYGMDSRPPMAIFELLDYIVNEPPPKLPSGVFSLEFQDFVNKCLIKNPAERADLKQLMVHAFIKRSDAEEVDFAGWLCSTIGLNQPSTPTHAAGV
T2 sequence (P45984 whole entry): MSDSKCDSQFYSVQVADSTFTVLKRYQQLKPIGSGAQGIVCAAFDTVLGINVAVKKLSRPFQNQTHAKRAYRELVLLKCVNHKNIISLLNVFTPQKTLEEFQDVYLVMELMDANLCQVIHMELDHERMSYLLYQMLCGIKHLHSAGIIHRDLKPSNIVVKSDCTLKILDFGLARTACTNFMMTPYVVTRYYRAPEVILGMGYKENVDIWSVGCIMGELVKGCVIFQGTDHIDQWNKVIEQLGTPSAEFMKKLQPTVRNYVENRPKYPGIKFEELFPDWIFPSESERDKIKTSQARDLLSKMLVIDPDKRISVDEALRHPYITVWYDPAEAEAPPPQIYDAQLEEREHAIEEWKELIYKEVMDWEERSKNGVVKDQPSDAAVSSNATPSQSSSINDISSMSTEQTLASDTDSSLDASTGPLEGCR
T4 sequence (Q14289 whole entry): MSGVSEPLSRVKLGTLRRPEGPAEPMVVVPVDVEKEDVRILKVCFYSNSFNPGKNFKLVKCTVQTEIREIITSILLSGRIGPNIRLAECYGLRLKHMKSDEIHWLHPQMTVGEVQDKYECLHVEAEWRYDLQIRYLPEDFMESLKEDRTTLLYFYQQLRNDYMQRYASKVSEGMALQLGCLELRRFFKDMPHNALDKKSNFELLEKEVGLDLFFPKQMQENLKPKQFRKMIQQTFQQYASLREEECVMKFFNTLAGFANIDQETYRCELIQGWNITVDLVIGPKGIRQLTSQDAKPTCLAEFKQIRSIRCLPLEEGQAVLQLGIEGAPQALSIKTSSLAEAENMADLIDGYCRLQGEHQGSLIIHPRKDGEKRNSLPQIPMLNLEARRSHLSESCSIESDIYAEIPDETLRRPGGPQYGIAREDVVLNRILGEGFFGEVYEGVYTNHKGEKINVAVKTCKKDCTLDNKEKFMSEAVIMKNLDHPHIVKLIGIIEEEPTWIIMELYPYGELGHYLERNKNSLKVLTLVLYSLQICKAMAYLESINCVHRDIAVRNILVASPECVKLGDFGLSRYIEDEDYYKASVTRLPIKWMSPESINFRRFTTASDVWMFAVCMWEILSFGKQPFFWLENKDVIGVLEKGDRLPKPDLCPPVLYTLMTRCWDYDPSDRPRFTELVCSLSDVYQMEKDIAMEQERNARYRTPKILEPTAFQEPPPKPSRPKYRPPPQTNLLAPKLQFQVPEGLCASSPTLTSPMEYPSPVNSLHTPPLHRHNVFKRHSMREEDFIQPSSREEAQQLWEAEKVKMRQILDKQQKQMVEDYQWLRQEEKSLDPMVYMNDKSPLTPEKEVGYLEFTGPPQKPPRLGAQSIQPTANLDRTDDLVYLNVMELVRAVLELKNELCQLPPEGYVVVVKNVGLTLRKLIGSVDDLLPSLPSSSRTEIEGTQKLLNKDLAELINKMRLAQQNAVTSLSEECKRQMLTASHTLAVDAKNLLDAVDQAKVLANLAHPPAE
From the text for Pyk2: AlphaScreen assay was used to screen additional kinases. The assay is similarly dependent on the phosphorylation of a peptide substrate. In this assay, an antibody that recognizes phosphorylated substrate is bound to an acceptor bead. The peptide substrate is attached to biotin, which binds to a donor head that contains streptavidin. Thus phosphorylated substrate is bound by antibody and streptavidin, bringing the donor and acceptor heads into close proximity when kinase is not inhibited. The donor produces singlet oxygen which results in emission from the acceptor when they are in close proximity. Conversely, when kinase is inhibited, the donor and acceptor beads are not associated and the emission from the acceptor is reduced.
AlphaScreen assays were done using compounds dissolved in DMSO to a concentration of 20 mM. The compounds were diluted accordingly to the desired final concentrations in each sample well, using 1:3 serial dilution for a total of 8 concentration points. Plates were prepared such that each kinase reaction is 20 μl in 1× kinase buffer, 5% DMSO and 10 μM ATP. After incubation of the kinase reaction for 1 hour at room temperature, 5 μl of donor beads in stop buffer (50 mM EDTA in 1× kinase buffer) was added, the sample was mixed and incubated for 20 minutes at room temperature before adding 5 μl of acceptor beads in stop buffer. The samples were incubated for 60 minutes at room temperature and the signal per well was read on AlphaQuest reader.

As usually defined, the IC50 is the point on the concentration scale where inhibition reaches its midpoint. `CC(=O)Nc1cccc(-c2cnc3[nH]cc(C(=O)c4cc(O)ccc4F)c3c2)c1` [Compound P-0001]: the half-maximal inhibitory concentration (IC50) at Flt4, on Jnk2, at MAP2K1 and on Pyk2 was at most 10 µM each time.

Regarding `Oc1ccc(F)c(Cc2c[nH]c3ncc(Br)cc23)c1F` [Compound P-0122, 3-(5-Bromo-1H-pyrrolo[2,3-b]pyridin-3-ylmethyl)-2,4-difluoro-phenol], the IC50 at Pyk2 is at most 10 µM.

As for `CC(=O)Nc1cccc(-c2cnc3[nH]cc(C(=O)c4cccc(O)c4F)c3c2)c1` [Compound P-0035, N-{3-[3-(2-Fluoro-3-hydroxy-benzoyl)-1H-pyrrolo[2,3-b]pyridin-5-yl]-phenyl}-acetamide], the half-inhibitory concentration (IC50) at Jnk2 and on Itk was at most 10 µM each time.

Turning to `Cc1c(NS(C)(=O)=O)cccc1C(=O)c1c[nH]c2ncc(-c3ccccc3)cc12` [Compound P-0082, N-[2-Methyl-3-(5-phenyl-1H-pyrrolo[2,3-b]pyridine-3-carbonyl)-phenyl]-methanesulfonamide], at Jnk2, the 50% inhibitory concentration (IC50) is at most 10 µM.

Take `CCCCNC(=O)Nc1ccc(F)c(C(=O)c2c[nH]c3ncc(-c4cccnc4)cc23)c1F` [Compound P-1318, 1-Butyl-3-[2,4-difluoro-3-(5-pyridin-3-yl-1H-pyrrolo[2,3-b]pyridine-3-carbonyl)-phenyl]-urea]: the IC50 at Jnk2 was at most 10 µM.

For the compound `O=C(c1cccc(O)c1)c1c[nH]c2ncc(Nc3ccccc3)cc12` [Compound P-0025], the IC50 on Jnk2 and on Itk was at most 10 µM each time.

Take `O=C(c1cccc(O)c1)c1c[nH]c2ncccc12` [Compound P-0011]: the IC50 on Flt4 and on MAP2K1 was at most 10 µM in each case.

For `O=C(c1cccc(O)c1F)c1c[nH]c2ncc(-c3ccccc3)cc12` [Compound P-0036, (2-fluoro-3-hydroxy-phenyl)-(5-phenyl-1H-pyrrolo[2,3-b]pyridin-3-yl)-methanone], the 50% inhibitory concentration (IC50) on Itk is at most 10 µM.

On to `O=C(c1cc(O)ccc1F)c1c[nH]c2ncccc12` [Compound P-0005], for which the concentration for half-maximal inhibition (IC50) at Flt4, at Jnk2 and at MAP2K1 was at most 10 µM in each case.

Regarding `Cc1ccc(S(=O)(=O)NCc2c[nH]c3ncccc23)cc1` [Compound P-0058], the IC50 on MAP2K1 and on Pyk2 was at most 10 µM each time.

For the compound `NC(=O)c1ccc(-c2ccnc3[nH]cc(C(=O)c4ccccc4F)c23)cc1` [Compound P-0014], the concentration for half-maximal inhibition (IC50) on MAP2K1 was at most 10 µM.

As for `O=C(c1cccc(O)c1)c1c[nH]c2nccc(-c3cc(F)cc(F)c3)c12` [Compound P-0039], the IC50 on Flt4 is at most 10 µM.

Turning to `CS(=O)(=O)c1cccc(-c2cnc3[nH]cc(C(O)c4c(F)ccc(F)c4F)c3c2)c1` (stereo not shown) [Compound P-0020], on Itk, the IC50 was at most 10 µM.

On to `O=C(c1ccc(O)cc1Cl)c1c[nH]c2ncccc12` [Compound P-0021], for which, on Pyk2, the half-maximal inhibitory concentration (IC50) is at most 10 µM.

For the compound `Nc1ccnc2[nH]cc(C(=O)c3ccccc3)c12` [Compound P-0029], the IC50 on Flt4 and at MAP2K1 was at most 10 µM each time.

Regarding `O=C(c1cc(O)ccc1F)c1c[nH]c2ncc(-c3cccs3)cc12` [Compound P-0032], the IC50 at Flt4 and on Pyk2 was at most 10 µM throughout.

With `Nc1cccc(-c2ccnc3[nH]cc(C(=O)c4cc(F)ccc4F)c23)c1` [Compound P-0046], the IC50 on MAP2K1 was at most 10 µM.

Turning to `Oc1cccc(Cc2c[nH]c3ncc(-c4cccs4)cc23)c1F` [Compound P-0052, 2-Fluoro-3-(5-thiophen-2-yl-1H-pyrrolo[2,3-b]pyridin-3-ylmethyl)-phenol], the IC50 on Jnk2 and on Pyk2 was at most 10 µM each time.

Turning to `O=C(c1ccccc1F)c1c[nH]c2nccc(-c3ccsc3)c12` [Compound P-0051], the IC50 on MAP2K1 was at most 10 µM.

Regarding `O=C(c1cccc(O)c1)c1c[nH]c2nccc(Cl)c12` [Compound P-0012], the IC50 at Flt4 and on MAP2K1 was at most 10 µM each time.

As to `Cc1c(O)cccc1C(=O)c1c[nH]c2ncc(-c3ccccc3)cc12` [Compound P-0016, (3-Hydroxy-2-methyl-phenyl)-(5-phenyl-1H-pyrrolo[2,3b]pyridin-3-yl)-methanone], the IC50 on Jnk2 and on Itk was at most 10 µM each time.

Turning to `CCCS(=O)(=O)Nc1ccc(F)c(C(=O)c2c[nH]c3ncc(-c4cccnc4)cc23)c1F` [Compound P-0088, Propane-1-sulfonic acid [2,4-difluoro-3-(5-pyridin-3-yl-1H-pyrrolo[2,3-b]pyridine-3-carbonyl)-phenyl]-amide], the 50% inhibitory concentration (IC50) at Jnk2 and on Pyk2 was at most 10 µM throughout.

Consider `COc1ccc(C(=O)c2c[nH]c3ncc(-c4cccc(/C=C/C(=O)O)c4)cc23)c(Cl)c1` [Compound P-0015], for which the IC50 at Jnk2, on MAP2K1 and on Pyk2 was at most 10 µM each time.

With `CCCS(=O)(=O)Nc1ccc(F)c(C(=O)c2c[nH]c3ncc(-c4ccccc4)cc23)c1F` [Compound P-0636, Propane-1-sulfonic acid [2,4-difluoro-3-(5-phenyl-1H-pyrrolo[2,3-b]pyridine-3-carbonyl)-phenyl]-amide], on Pyk2, the concentration for half-maximal inhibition (IC50) is at most 10 µM.

On to `O=C(c1cccc(O)c1F)c1c[nH]c2ncc(-c3cccnc3)cc12` [Compound P-0027, (2-Fluoro-3-hydroxy-phenyl)-(5-pyridin-3-yl-1H-pyrrolo[2,3-b]pyridin-3-yl)-methanone], for which the IC50 at Jnk2 and at Itk was at most 10 µM each time.

For the compound `Nc1cccc(-c2ccnc3[nH]cc(C(=O)c4ccccc4F)c23)c1` [Compound P-0022], on MAP2K1, the IC50 is at most 10 µM.

Turning to `Cn1cc(C(F)(F)F)c(-c2ccc(S(=O)(=O)NCc3c[nH]c4ncccc34)s2)n1` [Compound P-0041], the IC50 at Flt4, at MAP2K1 and on Pyk2 was at most 10 µM throughout.

Take `CN(C)S(=O)(=O)Nc1ccc(F)c(Cc2c[nH]c3ncc(-c4cccnc4)cc23)c1F` [Compound P-0166]: the IC50 at Pyk2 was at most 10 µM.

Regarding `CCCC(=O)Nc1ccc(F)c(Cc2c[nH]c3ncc(-c4cccnc4)cc23)c1F` [Compound P-1280], the IC50 on Pyk2 is at most 10 µM.

`O=C(Nc1ccc(Cc2c[nH]c3ncccc23)cc1)Nc1cccc(C(F)(F)F)c1` [Compound P-0262, 1-[4-(1H-Pyrrolo[2,3-b]pyridin-3-ylmethyl)-phenyl]-3-(3-trifluoromethyl-phenyl)-urea]: the IC50 at Pyk2 is at most 10 µM.

`O=C(c1cccc(O)c1)c1c[nH]c2ncc(Br)cc12` [Compound P-0019]: the 50% inhibitory concentration (IC50) at Flt4 and at Itk was at most 10 µM each time.

Consider `COc1ccc(F)c(C(=O)c2c[nH]c3ncc(-c4cccnc4)cc23)c1` [Compound P-0090], for which the IC50 at Flt4 and on Jnk2 was at most 10 µM each time.

On to `Cc1ccccc1C(=O)c1c[nH]c2nccc(-c3ccc(C(N)=O)cc3)c12` [Compound P-0017], for which the IC50 on MAP2K1 is at most 10 µM.

`CCCS(=O)(=O)Nc1ccc(F)c(C(=O)c2c[nH]c3ncc(OC)cc23)c1F` [Compound P-0806, Propane-1-sulfonic acid [2,4-difluoro-3-(5-methoxy-1H-pyrrolo[2,3-b]pyridine-3-carbonyl)-phenyl]-amide]: the IC50 at MAP2K1 and at Pyk2 was at most 10 µM each time.

For the compound `NC(=O)c1cccc(-c2cnc3[nH]cc(C(=O)c4cccc(O)c4F)c3c2)c1` [Compound P-0034, 3-[3-(2-Fluoro-3-hydroxy-benzoyl)-1H-pyrrolo[2,3-b]pyridin-5-yl]benzamide], the IC50 on Jnk2 and at Itk was at most 10 µM each time.

As to `O=C(c1cccc(O)c1F)c1c[nH]c2ncc(Br)cc12` [Compound P-0067, (5-bromo-1H-pyrrolo[2,3-b]pyridin-3-yl)-(2-fluoro-3-hydroxy-phenyl)-methanone], the half-inhibitory concentration (IC50) on Itk is at most 10 µM.

For `NC(=O)c1ccc(-c2ccnc3[nH]cc(C(=O)c4cc(F)ccc4F)c23)cc1` [Compound P-0013], the IC50 on Jnk2 and on Itk was at most 10 µM in each case.

Regarding `Oc1ccc(F)c(Cc2c[nH]c3ncc(-c4cccnc4)cc23)c1F` [Compound P-0078, 2,4-difluoro-3-(5-pyridin-3-yl-1H-pyrrolo[2,3-b]pyridin-3-ylmethyl)-phenol], at Pyk2, the IC50 was at most 10 µM.

Regarding `Oc1cc(O)cc(Cc2c[nH]c3ncc(-c4ccsc4)cc23)c1` [Compound P-0093], the IC50 on Flt4 was at most 10 µM.

For the compound `Cc1ccc(F)cc1C(=O)c1c[nH]c2ncc(-c3cccc(N)c3)cc12` [Compound P-0040], the IC50 on Flt4 and at Jnk2 was at most 10 µM in each case.

In the case of `CS(=O)(=O)Nc1cccc(-c2cnc3[nH]cc(C(=O)c4cccc(O)c4F)c3c2)c1` [Compound P-0038, N-{3-[3-(2-Fluoro-3-hydroxy-benzoyl)-1H-pyrrolo[2,3-b]pyridin-5-yl]-phenyl}-methanesulfonamide], at Itk, the concentration for half-maximal inhibition (IC50) was at most 10 µM.
